According to patent US20160038521A1, “THERAPEUTIC METHODS” (UNIVERSITY OF IOWA RESEARCH FOUNDATION, priority 2013, published 2016):
“Also recorded” adds a separate entry of the source.

Experiments:
Cln3−/− MBECs = assay: Fluid-phase endocytosis, uptake of fluorescent dextran; format: cell-based, mouse; details: 25 μM CBX for 30 minutes
Experimental: FIG. 5. Correction of fluid-phase endocytosis by CBX. Hoechst 33342 to label DNA (blue) and saline (mock) or 25 μM CBX was added to cell culture media for 30 minutes. Fluid-phase endocytic uptake in the presence of CBX or PBS was determined by uptake of fluorescent dextran (green). Extracellular dextran was quenched by Red-40 and cells were imaged by epifluorescence. ImageJ was used to calculate fluorescence intensity. Data represent the mean of three independent experiments, error bars±SEM (1-way ANOVA with TUKEY post-hoc, ***, p<0.0001). Scale bar=10 μm.

Cln3−/− mice = assay: Autofluorescent inclusions in cingulate cortex brain sections; format: in vivo, mouse; details: gavage 20 mg/kg daily for two weeks, p<0.05
Excerpt: FIG. 11: CBX treatment reduces Cln3^−/− autofluorescent inclusions. Thin (50 μm) brain sections from mice treated as in were imaged under low magnification in the red channel to detect autofluorescence. Four images were taken of each cingulate cortex, and fluorescence intensity averaged in ImageJ. Data represent a minimum of 4 mice per group. Error bars±SEM (1-way ANOVA with TUKEY post-hoc, *, p<0.05) Scale bar=200 μm.

[1] = tested on: CLN3-null JNCL mouse brain endothelial cells; assay: Scratch wound cell migration, live cell microscopy; format: cell-based; details: CLN3−/− MBEC, CBX vs mock, overnight
Experimental: FIG. 4. Carbenoxolone normalizes migration of CLN3-null JNCL mouse brain endothelial cells. Cell migration induced by a scratch in cell monolayers was measured using live cell microscopy and quantified by T-Scratch software. CLN3-expressing (CLN3-R) and CLN3-null (CLN3-/-) MBEC were grown to confluence. A gap in the monolayer was made by “[…] wound”, and the rate of cell migration to fill in the gap was monitored by live cell microscopy. CLN3-/- MBEC show a delayed ability to fill in the gap. Carbenoxolone treatment corrects this defect. Cells were either treated with CBX or left untreated (mock) in the presence or absence of CBX. Data are collected overnight. Data represent the mean of three independent experiments, error bars±SEM (2-way ANOVA with Bonferroni post-hoc correction, *, p<0.05).

caveolin-1 = assay: Caveolin-1 transport to the cell membrane, immunofluorescence; format: cell-based, mouse; details: CLN3−/− MBEC, 25 μM for 2 h
Experimental: FIG. 6. Carbenoxolone restores caveolin-1 transport to the cell membrane in CLN3-null JNCL mouse brain endothelial cells. CLN3-expressing (CLN3-R) and CLN3-null (CLN3−/−) MBEC were untreated or cultured with 25 μM carbenoxolone for 2 h, then immunofluorescently stained for caveolin-1. Without treatment, caveolin-1 transport to the plasma membrane is impaired in CLN3−/− MBEC. Carbenoxolone restores normal caveolin-1 trafficking to the plasma membrane.

[2] = Leshchenko et al., 2006; cited from earlier work
[3] = tested on: plasma membrane cholesterol; assay: Cholesterol distribution at the plasma membrane, Amplex Red Cholesterol assay; format: cell-based, mouse; details: CBX 25 μM for 2 hours vs mock
Experimental: Plasma membranes are detergent-free fractionated and cholesterol levels in each fraction are quantified by the Amplex Red® Cholesterol assay kit. A representative experiment from four independent experiments is shown with CBX 25 μM for 2 hours or mock treatment.

Cdc42 = Cdc42 activity (Cdc42-GTP levels) in mouse brain endothelial cells; format: cell-based; details: for Cdc42 activity: CLN3−/− MBEC, p<0.05
Excerpt: FIGS. 2A and 2B. Carbenoxolone reduces Cdc42 activity in CLN3-null JNCL mouse brain endothelial cells (MBEC). […] FIG. 3: CBX corrects Cdc42-GTP levels. […] Data represent the mean of three independent experiments, error bars±SEM (1-way ANOVA with TUKEY post-hoc, (*, p<0.05, n.s.=not significant).

CC1(C)[C@@H](OC(=O)CCC(=O)O)CC[C@]2(C)[C@H]3C(=O)C=C4[C@@H]5C[C@@](C)(C(=O)O)CC[C@]5(C)CC[C@@]4(C)[C@]3(C)CC[C@@H]12 [CBX, carbenoxolone]
Fluid-phase endocytosis (fluorescent dextran uptake) (Cln3−/− MBECs): Correction; also recorded: increases fluid-phase endocytosis | Autofluorescent inclusions (fluorescence intensity, cingulate cortex) (Cln3−/− mice): reduces | Cell migration (rate of filling scratch gap) [1]: increases cell migration | Cell migration (rate of filling scratch gap) ([1]; listed as Carbenoxolone): normalizes | Caveolin-1 transport to the plasma membrane (caveolin-1): restores | Ability to pass the blood-brain barrier (BBB) [2]: little or no ability | Cholesterol distribution at the plasma membrane [3]: corrects cholesterol distribution | Cdc42 activity level (Cdc42; CLN3-R (CLN3-expressing) MBEC, CBX 50 μM for 2 h): does not alter | Cdc42 activity (Cdc42; CBX 50 μM for 2 h): effectively normalized | Cdc42 activity (Cdc42; CBX 50 μM for 2 h, listed as Carbenoxolone): significantly reduces | Cdc42-GTP levels (Cdc42; Cln3−/− MBECs, CBX 25 μM for 2 hours vs saline (mock)): corrects; also recorded: reduces
